Patent EP3156398A1, “AGONISTS OF THE CHEMOKINE RECEPTOR CXCR3” (Friedrich-Alexander-Universität Erlangen-Nürnberg, priority 2015, dated 2017)
Where “and” joins values, the source holds several entries; their conditions need not be identical. Equal values may be shown once. Read-outs that look alike come from different tables or passages of the source.

Columns and labels:
CXCR3 = biological target: T1, CXCR3 (Homo sapiens, UniProt P49682); assay: [35S]GTPγS incorporation assay; format: biochemical; details: for CXCR3 Efficacy (%) ± SEM / Emax: % of CXCL11 mediated effect; for CXCR3 Efficacy (%) ± SEM / Emax / CXCR3 pEC50 ± SEM / EC50: membrane preparations of HEK293T stably expressing CXCR3; for Emax: read-out: CXCR3 Efficacy (%) ± SEM; for CXCR3 pEC50 ± SEM: mean of three experiments in triplicate; for EC50: read-out: EC50 / potency in [35S]GTPγS incorporation
T1 construct: expressed in transfected cells; host or cells: HEK293 / HEK293T cells, stably transfected; membrane preparations
T1 sequence (P49682 1-368): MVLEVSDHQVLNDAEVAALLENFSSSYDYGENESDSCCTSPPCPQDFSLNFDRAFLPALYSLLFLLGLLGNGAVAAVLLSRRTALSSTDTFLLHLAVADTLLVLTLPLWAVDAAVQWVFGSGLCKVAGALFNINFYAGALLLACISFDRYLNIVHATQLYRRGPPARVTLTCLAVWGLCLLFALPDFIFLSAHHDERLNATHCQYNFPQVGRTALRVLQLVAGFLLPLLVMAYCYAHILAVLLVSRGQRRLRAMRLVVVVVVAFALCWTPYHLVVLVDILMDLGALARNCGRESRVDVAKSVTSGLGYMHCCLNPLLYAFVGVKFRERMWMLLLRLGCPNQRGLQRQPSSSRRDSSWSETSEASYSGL
Method: Membrane preparation for allosteric radioligand RAMX3 displacement and [^35S]GTPγS incorporation assays: The human embryonic kidney (HEK) cells stably expressing the human CXCR3 receptor were cultured in 150-mm cell culture plates in DMEM/F-12 supplemented with 10% fetal bovine serum (FBS), 2 mM L-glutamine, 1% penicillin-streptomycin, 300 µgmL^-1 Zeocin and incubated at 37 °C in a humid atmosphere with 5% CO2. At 100% confluency cells were washed with PBS twice, treated with Tris EDTA buffer (10 mM Tris, 0.5 mM EDTA, 5 mM KCl, 140 mM NaCl, pH 7.4), and harvested using a cell scraper. Cells were pelleted at 1100×g for 8 min at 4 °C, resuspended in Tris-EDTA-MgCl2 buffer (50mM Tris, 5 mM EDTA, 1.5 mM CaCl2, 5 mM MgCl2, 5 mM KCl, 120 mM NaCl, pH 7.4) and followed by lysis with an Ultra-Turrax. After centrifugation at 50,000•g, at 4°C for 18 min the membranes were resuspended in the binding buffer (50 mM Tris, 1 mM EDTA, 5 mM MgCl2 and subsequently homogenized with a glass-Teflon homogenizer (20 strokes). The homogenized membranes were shock-frozen in liquid nitrogen and stored at -80°C. The protein concentration was determined with the Lowry method with bovine serum albumin used as a standard.^35
[^35S]GTPγS incorporation assay: The [^35S]GTPγS incorporation assay was performed on membrane preparations of stably transfected HEK293 cells that expressed the CXCR3 receptor. The assay was carried out in 96-well plates at the final volume of 200 µL. The incubation buffer contained 20 mM HEPES, 10 mM MgCl2•6H20,100 mM NaCl and 100 mg/L saponin (pH 7.4). Membranes (30 µgmL^-1 of membrane protein), various concentrations of test compound and CXCL11, and 1 µM GDP were preincubated in the absence of [^35S]GTPγS for 30 min at 37 °C. After the addition of 0.10 nM [^35S]GTPγS membranes were incubated for additional 30 min at 37 °C. Incubation was terminated by filtration through Whatman GF/B filters soaked with ice cold PBS. The filter-bound radioactivity was measured as described above. Three to four experiments per compound were performed with each concentration in triplicate.
The activation of G proteins was explored in terms of CXCR3 mediated [^35S]GTPγS incorporation. In the [^35S]GTPγS incorporation assay the membrane preparations of HEK293T cells stably expressing CXCR3 were used. The activation of G proteins was monitored as the incorporation of [^35S]GTPγS and thus increase in the incorporated radioactivity. The potency and efficacy of the novel compounds was first compared to the reference compound 46/VUF10661. […] Table 1. The ability of the 46/VUF10661 based positive allosteric modulators to activate CXCR3 as measured in the [35S]GTPγS incorporation assay.[a]

CXCR3-PK1 = biological target: T2, CXCR3-PK1 (Homo sapiens, UniProt P49682); assay: β-arrestin 2 recruitment assay (PathHunter, DiscoveRx), CXCR3-PK1 construct; format: cell-based; details: for CXCR3-PK1 pEC50 ± SEM: HEK293-T cells, PathHunter, two to three experiments in triplicate
T2 construct: expressed in transfected cells; host or cells: HEK293 cells stably expressing beta-gal enzyme acceptor (PathHunter, DiscoveRx), transiently transfected
T2 sequence (P49682 1-368): T1 sequence (P49682 1-368)
Method: (§1) β-arrestin 2 recruitment assay: The measurement of β-arrestin recruitment was performed utilizing the PathHunter assay purchased from DiscoveRx (DiscoveRx, Birmingham, U.K.) according to the manufacturer's protocol. HEK293 cells stably expressing β-gal enzyme acceptor were transiently transfected with the ProLink (PK1) tagged wildtype CXCR3 receptor using the TransIT-293 transfection reagent from Mirus (purchased from MoBiTec, Goettingen, Germany). The assay was carried out in 384-well plates containing 2000 cells in 20 µL. After incubation at 37°C (5% CO2, 95% relative humidity) overnight, various concentrations of test compounds or CXCL11 (prepared in PBS, pH 7.4, containing 0.20% BSA) were added and the incubation continued for 4 h. Detection mix was then added and incubated for further 60 min at room temperature. Chemiluminescence was determined with a microplate reader Clariostar (BMG labtech, Ortenberg, Germany).
(§2) The ability of the novel ligands according to the present invention to induce CXCR3-mediated β-arrestin 2 recruitment was investigated in the assay system PathHunter (DiscoveRx), which detects the recruitment of β-amestin 2 to the activated receptor using β-galactosidase (β-gal) enzyme fragment complementation. The inventors used two different ProLink tags, ProLink1 (PK1) and ProLink2 (PK2), of which PK2 has higher affinity for the enzyme acceptor to detect weak protein-protein interactions. The CXCR3-PK2 construct is readily able to detect the differences in the propensity of CXCL11 and CXCL10 to induce β-arrestin 2 recruitment at CXCR3. […] Table 3. Ability of the 46/VUF10661 based positive allosteric modulators to activate the CXCR3 as measured in the β-arrestin 2 recruitment assay (PathHunter, DiscoveRx).[a]

CXCR3-PK2 = biological target: T3, CXCR3-PK2 (Homo sapiens, UniProt P49682); assay: β-arrestin 2 recruitment assay (PathHunter, DiscoveRx), CXCR3-PK2 construct; format: cell-based; details: for CXCR3-PK2 pEC50 ± SEM: HEK293-T cells, PathHunter
T3 construct: expressed in transfected cells
T3 sequence (P49682 1-368): T1 sequence (P49682 1-368)
Method: as §1, §2
To investigate the efficacy of identified partial agonists in the assay format, the inventors used the CXCR3-PK2 construct, which is characterized by higher sensitivity to detect β-arrestin 2 recruitment. The compounds which appeared as weak partial agonists under CXCR3-PK1 conditions appeared as strong partial agonists under CXCR3-PK2 conditions with the efficacy increased up to 80% (Table 4). FAUC1036 reached the efficacy of 66%. […] Table 4. Ability of the compound 5 based positive allosteric modulators to activate the CXCR3 as measured in the β-arrestin 2 recruitment assay (PathHunter, DiscoveRx).[a]

[1] = % of CXCL11 mediated effect, CXCR3-PK1, read-out: CXCR3-PK1 efficacy (%) (converted)
[2] = % of CXCL11 mediated effect, CXCR3-PK2, read-out: CXCR3-PK2 efficacy (%) (converted)

Row | SMILES | CXCR3 Efficacy (%) ± SEM (CXCR3) | Emax (CXCR3) [%] | CXCR3 pEC50 ± SEM (CXCR3) | EC50 (CXCR3) [nM] | CXCR3-PK1 efficacy (%) (CXCR3-PK1; % of CXCL11 mediated effect, CXCR3-PK1) | Emax (CXCR3-PK1; [1]) [%] | CXCR3-PK1 pEC50 ± SEM (CXCR3-PK1; CXCR3-PK1) | Emax (CXCR3-PK2; [2]) [%] | CXCR3-PK2 pEC50 ± SEM (CXCR3-PK2; CXCR3-PK2) | Emax (CXCR3-PK1; read-out: CXCR3-PK1 efficacy (%)) [%] | Emax (CXCR3-PK2; read-out: CXCR3-PK2 efficacy (%)) [%] | CXCR3 mediated G protein activation (result in words) (CXCR3; [35S]GTPγS incorporation) | β-arrestin 2 recruitment, intrinsic agonism (result in words) (CXCR3-PK1) | CXCR3 pEC50 ± SEM (CXCR3; listed as 46/VUF10661, 2,2,2-trifluoroacetate) | CXCR3-PK1 pEC50 ± SEM (CXCR3-PK1; CXCR3-PK1, listed as 46/VUF10661, 2,2,2-trifluoroacetate) | higher efficacy than CXCL11 (CXCR3-PK1; β-arrestin 2 recruitment, relative to CXCL11) [%]
1 | CC(C)(C)OC(=O)N[C@@H](CCCCNC(=O)[C@@H]1Cc2ccccc2CN1)C(=O)NCC(c1ccccc1)c1ccccc1 [Compound 5, Tert-butyl ((S)-1-((2,2-diphenylethyl)amino)-1-oxo-6-((S)-1,2,3,4-tetrahydroisoquinoline-3-carboxamido)hexan-2-yl)carbamate] | 34±8% | 34 | 5.7 ± 0.34 and 5.66±0.34 | 2200 | 31±2 | 31 | 6.50±0.17 | 79 | 6.71±0.33 | – | – | – | – | – | – | –
2 | CC(=O)CCC(=O)N1Cc2ccccc2C[C@H]1C(=O)NCCCC[C@H](NC(=O)OC(C)(C)C)C(=O)NCC(c1ccccc1)c1ccccc1 [Compound 12, Tert-butyl((S)-1-((2,2-diphenylethyl)amino)-1-oxo-6-((S)-2-(4-oxopentanoyl)-1,2,3,4-tetrahydroisoquinoline-3-carboxamido)hexan-2-yl)carbamate] | No effect | – | No effect | – | – | 34 | 6.78±0.17 | 63 | 6.64±0.33 | – | – | – | – | – | – | –
3 | CC(C)(C)OC(=O)N[C@@H](CCCCNC(=O)[C@@H]1Cc2ccccc2CN1C(=O)CCc1ccccc1)C(=O)NCC(c1ccccc1)c1ccccc1 [Compound 23, Tert-butyl((S)-1-((2,2-diphenylethyl)amino)-1-oxo-6-((S)-2-(3-phenylpropanoyl)-1,2,3,4-tetrahydroisoquinoline-3-carboxamido)hexan-2-yl)carbamate] | – | 30 ± 17 | 5.07±0.50 | – | – | 19 | 7.21±0.17 | 29 | 6.71±0.30 | – | – | – | – | – | – | –
4 | CC(C)(C)OC(=O)N[C@@H](CCCCNC(=O)[C@@H]1Cc2ccccc2CN1C(=O)CCCC(=O)c1ccccc1)C(=O)NCC(c1ccccc1)c1ccccc1 [Compound 24, Tert-butyl ((S)-1-((2,2-diphenylelhyl)amino)-1-oxo-6-((S)-2-(5-oxo-5-phenylpentanoyl)-1,2,3,4-tetrahydroisoquinoline-3-carboxamido)hexan-2-yl)carbamate] | No efffect | – | No effect | – | – | – | 6.84±1.7 | – | 6.78±0.35 | 20 | 56 | – | – | – | – | –
5 | N[C@@H](CCCCNC(=O)[C@@H]1Cc2ccccc2CN1C(=O)CCC(=O)c1ccccc1)C(=O)NCC(c1ccccc1)c1ccccc1.O=C(O)C(F)(F)F [Compound 25, (S)-1-((2,2-diphenylethyl)amino)-1-oxo-6-((S)-2-(4-oxo-4-phenylbutanoyl)-1,2,3,4-tetrahydroisoquinoline-3-carboxamido)hexan-2-aminium 2,2,2-trifluoroacetate] | No effect | – | No effect | – | – | 17 | 6.80±0.21 | 27 | 6.51±0.34 | – | – | failed to induce CXCR3 mediated G protein activation | – | – | – | –
6 | N[C@@H](CCCCNC(=O)[C@@H]1Cc2ccccc2CN1C(=O)CCCC(=O)c1ccccc1)C(=O)NCC(c1ccccc1)c1ccccc1.O=C(O)C(F)(F)F [Compound 26, (S)-1-((2,2-diphenylethyl)amino)-1-oxo-6-((S)-2-(5-oxo-5-phenylpentanoyl)-1,2,3,4-tetrahydroisoquinoline-3-carboxamido)hexan-2-aminium 2,2,2-trifluoroacetate] | No effect | – | No effect | – | – | 20 | 6.73±0.22 | 91 | 6.90±0.21 | – | – | – | – | – | – | –
7 | CC(C)(C)OC(=O)N[C@@H](CCCCNC(=O)[C@@H]1Cc2ccccc2CN1C(=O)CCC(=O)O)C(=O)NCC(c1ccccc1)c1ccccc1 [Compound 27, 4-((S)-3-(((S)-5-((tert-butoxycarbonyl)amino)-6-((2,2-diphenylethyl)amino)-6-oxohexyl)carbamoyl)-3,4-dihydroisoquinolin-2(1H)-yl)-4-oxobutanoic acid] | No effect | – | No effect | – | – | – | No effect | – | No effect | – | – | – | no agonistic effect | – | – | –
8 | NCCCC[C@H](NC(=O)[C@@H]1Cc2ccccc2CN1C(=O)CCC(=O)c1ccccc1)C(=O)NCC(c1ccccc1)c1ccccc1.O=C(O)C(F)(F)F [Compound 46, (S)-6-((2,2-diphenylethyl)amino)-6-oxo-5-((S)-2-(4-oxo-4-phenylbutanoyl)-1,2,3,4-tetrahydroisoquinoline-3-carboxamido)hexan-1-aminium 2,2,2-trifluoroacetate, reference compound] | – | 109 ± 3 | – | 600 | – | 139 | – | – | – | – | – | – | – | 6.2 ± 0.1 and 6.20±0.06 | 5.89 ± 0.07 | ~40
